The target in one data set is T1, Bcl-xL (Homo sapiens, UniProt Q07817).
T1 construct: made in house
Briefly: Fluorescence polarization-based competitive binding assay (FPA) with fluorescein-labeled Bad peptide.

Another data set has as its system HeLa cells. The experiment in a line: HeLa cells viability assay. The format is cell-based. Conditions: Homo sapiens, read-out: IC50 (μM) HeLa.
For data set [1] the following is noted: previous cell-based assays; cited from earlier work.
In data set [2] the test system is ZR75-1 cell line (low expressor of Bcl-2/Bcl-xL). Briefly: XTT dye reduction cell viability assay, ZR75-1. Conditions: ZR75-1, XTT; for IC50: read-out: IC50, cell viability, three days.
Experimental: (§1) To evaluate the cytotoxic activity of our compounds on human tumors cells, we tested their biological activities using XTT dye reduction assays using two breast cancer cell lines: MCF7 (high expressor of Bcl-2/Bcl-xL) and ZR75-1 (low expressor of Bcl-2/Bcl-xL).
(§2) The effects of the compounds studied in this paper on viability of tumor cells in culture were monitored by using XTT (Weislow et al., J. Natl. Cancer Inst., 81:577 (1989)) assays with MCF7 and ZR75-1 cell lines. MCF7 cells were grown in DMEM containing 10% fetal bovine serum, penicillin/streptomycin, supplemented with 10^−10 M insulin, 1 mM sodium pyruvate and glutamine. ZR75-1 cells were grown in RPMI containing 10% fetal bovine serum, penicillin/streptomycin, supplemented with HEPES buffer, 1 mM sodium pyruvate and glutamine. Cells were regularly tested for mycoplasma contamination. Cells were seeded triplicates at an initial cell density of 1,000 cells per well. Blank wells received no cells. […] Relative numbers of viable cells was determined by XTT assay. Briefly, in a 96-well plate, we added 50 μl of a mixture of 1 mg/ml of XTT (Weislow et al., J. Natl. Cancer Inst., 81:577 (1989)) (2,3-bis(2-methoxy-4-nitro-5-sulfophenyl)-5-[(phenylamino)carbonyl]-2H-tetrazolium hydroxide) (Polysciences, Washington, Pa.) containing 0.025 mM PMS (phenazine methosulfate) to each well. The 96-well plates were re-incubated for an additional 4 hours to allow for XTT formazan production. Then, the contents of each plate were mixed and optical densities were determined at a wavelength of 450 nm (OD450). Net OD450 was determined after subtracting OD450 of blank wells. Low-passage HeLa cells (between passage number 10 and 20) were transfected with pcDNA3-Bcl-xL or control pcDNA3 plasmids using Lipofectamine Plus reagent (Invitrogen) and selected in medium containing 800 μg/ml of G418. Immunoblot analysis of Bcl-xL was accomplished as described (Krajanski 1996-Cancer Res) HeLa-transfectants were treated with various doses of Gossypol, Purpurogallin, and its derivatives (0, 1, 3, 10 and 100 μM).
Data set [3] in a line: Combination of Apogossypol with fludarabine (FIG. 6, 7). The format is cell-based.
Data set [4] concerns MCF7 cell line (high expressor of Bcl-2/Bcl-xL). The experiment in a line: XTT dye reduction cell viability assay, MCF7.
Experimental: as §1
The effects of the compounds studied in this paper on viability of tumor cells in culture were monitored by using XTT (Weislow et al., J. Natl. Cancer Inst., 81:577 (1989)) assays with MCF7 and ZR75-1 cell lines. MCF7 cells were grown in DMEM containing 10% fetal bovine serum, penicillin/streptomycin, supplemented with 10^−10 M insulin, 1 mM sodium pyruvate and glutamine. ZR75-1 cells were grown in RPMI containing 10% fetal bovine serum, penicillin/streptomycin, supplemented with HEPES buffer, 1 mM sodium pyruvate and glutamine. Cells were regularly tested for mycoplasma contamination. Cells were seeded triplicates at an initial cell density of 1,000 cells per well. Blank wells received no cells. […] Relative numbers of viable cells was determined by XTT assay. […] Then, the contents of each plate were mixed and optical densities were determined at a wavelength of 450 nm (OD450). Net OD450 was determined after subtracting OD450 of blank wells. […]
Setting [5] is: Table 4, Purpurogallin derivatives, read-out: IC50 (μM) (Bcl-xL).
The mark [6] stands for this setting: Table 1, green tea extracts, target Bcl-xL inferred from text and figure legends, read-out: IC50.
The mark [7] stands for this setting: Table 2, black tea extracts, target Bcl-xL inferred from text and figure legends, read-out: IC50.

The source of these data is patent publication US8367644B2, “Methods and compounds useful to induce apoptosis in cancer cells” (The Burnham Institute, priority 2003, dated 2013).

The structures appear in SMILES notation. Where two headings read alike, the source gives them in different places.

T1 sequence (Q07817 whole entry): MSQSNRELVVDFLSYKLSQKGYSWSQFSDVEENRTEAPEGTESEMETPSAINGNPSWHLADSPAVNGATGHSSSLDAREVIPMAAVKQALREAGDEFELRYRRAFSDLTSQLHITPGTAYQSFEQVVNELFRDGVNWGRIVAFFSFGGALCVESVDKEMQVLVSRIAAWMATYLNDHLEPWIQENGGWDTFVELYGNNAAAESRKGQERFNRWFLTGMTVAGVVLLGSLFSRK
Experimental for HeLa cells: as §1, §2

Consider `O=C(O)c1cc(O)c(=O)c2cc(O)c(O)cc2c1` [Compound 1142], for which the IC50 on Bcl-xL (setting [5]) is 7.4 µM; with HeLa cells (Table 4, HeLa cells viability), 22.9 µM.

In the case of `Cc1cc2c(C(C)C)c(O)c(O)c(C=O)c2c(O)c1-c1c(C)cc2c(C(C)C)c(O)c(O)c(C=O)c2c1O` [(−) Gossypol], the “effectiveness as a cytotoxic agent relative to (+) Gossypol” value in data set [1] is listed as “ten times more effective than (+) Gossypol”.

With `O=C(O[C@@H]1Cc2c(O)cc(O)cc2O[C@@H]1c1cc(O)c(O)c(O)c1)c1cc(O)c(O)c(O)c1` [(−) Epigallocatechin-3-gallate (EGCG), (−) Epigallocatechin-3-gallate], at Bcl-xL (setting [6]), the IC50 stood at 0.98 µM.

In the case of `O=C(O[C@@H]1Cc2c(O)cc(O)cc2O[C@H]1c1ccc(O)c(O)c1)c1cc(O)c(O)c(O)c1` [(−) Catechin-3-gallate (CG), (−) Catechin-3-gallate], the IC50 on Bcl-xL (setting [6]) was determined as 0.29 µM.

Take `CCOC(=O)c1cc(O)c(=O)c2cc(O)c(O)cc2c1` [Compound 5D1]: the IC50 was 73 µM on Bcl-xL (setting [5]); around 50 µM in data set [2]; 51.5 µM in the data set on HeLa cells (Table 4, HeLa cells viability).

`Oc1cc(O)c2c(c1)O[C@@H](c1cc(O)c(O)c(O)c1)[C@H](O)C2` [(−) Gallocatechin (GC), (−) Gallocatechin]: at Bcl-xL (setting [6]), the IC50 was above 100 µM.

For the compound `O=c1c(O)cc([C@H]2Oc3cc(O)cc(O)c3C[C@H]2O)cc2c([C@H]3Oc4cc(O)cc(O)c4C[C@H]3O)cc(O)c(O)c12` [Theaflavin], at Bcl-xL (setting [7]), the IC50 is 1.05 µM.

Take `COC(=O)c1cc(O)c(=O)c2cc(O)c(O)cc2c1` [Compound 1163]: the IC50 on Bcl-xL (setting [5]) was found to be 2.6 µM.

Take `Oc1cc(O)c2c(c1)O[C@@H](c1ccc(O)c(O)c1)[C@H](O)C2` [(−) Catechin (C), (−) Catechin]: the IC50 at Bcl-xL (setting [6]) is above 100 µM.

For `O=C(O[C@H]1Cc2c(O)cc(O)cc2OC1c1cc(O)c(=O)c2c(O)c(O)cc([C@H]3Oc4cc(O)cc(O)c4C[C@H]3O)c2c1)c1cc(O)c(O)c(O)c1` (stereo partly drawn) [Theaflavin-3′-gallate], at Bcl-xL (setting [7]), the IC50 was 0.6 µM.

For the compound `Cc1cc2c(C(C)C)c(O)c(O)cc2c(O)c1-c1c(C)cc2c(C(C)C)c(O)c(O)cc2c1O` [Apogossypol (6C1), Apogossypol], in data set [3] (FIG. 6), the “effect in combination with fludarabine (F-ara-A)” value was “additive effect”. Besides, the “effect in combination with F-ara-A” value in data set [3] (FIG. 7) is listed as “synergistic Effect”.

With `Oc1cc(O)c2c(c1)O[C@@H](c1ccc(O)c(O)c1)[C@@H](O)C2` [(+) Epicatechin (EC), (+) Epicatechin], the IC50 at Bcl-xL (setting [6]) is above 100 µM.

As to `COc1c(O)cc2cccc(OC)c(=O)c2c1OC` [Compound 6A7], the IC50 on Bcl-xL and in the data set with HeLa cells (HeLa) was above 100 µM in each case.

For `O=c1c(O)cccc2cc(O)c(O)c(O)c12` [Purpurogallin], the cytotoxic activity result in data set [4] and in data set [2] was “did not show appreciable activity” in each case. Further, the “competition for the BH3-binding pocket” value at Bcl-xL (FIG. 1 legend) was “compete for the BH3-binding pocket of Bcl-xL”. Besides, the IC50 in the data set with HeLa cells (Table 4, HeLa cells viability) stood at 6.5 µM.

With `COc1cc2cccc(OC)c(=O)c2c(OC)c1OC` [Compound 6A1], the IC50 on Bcl-xL (setting [5]) was above 100 µM; in the data set on HeLa cells (Table 4, HeLa cells viability), above 100 µM.

In the case of `Cc1cc2c(C(C)C)c(O)c(O)c(C=O)c2c(O)c1-c1c(C)cc2c(C(C)C)c(O)c(O)c(C=O)c2c1O` (racemic) [Gossypol], the IC50 stood at 13.2 µM in data set [4] (read-out: IC50, cell viability, three days) and 8.4 µM in data set [2].

In the case of `Oc1cc(O)c2c(c1)O[C@H](c1cc(O)c(O)c(O)c1)[C@H](O)C2` [(−) Epigallocatechin (EGC), (−) Epigallocatechin], on Bcl-xL (setting [6]), the IC50 was above 100 µM.

As for `O=C(O[C@@H]1Cc2c(O)cc(O)cc2O[C@H]1c1cc(O)c(O)c(O)c1)c1cc(O)c(O)c(O)c1` [(−) Gallocatechin-3-gallate (GCG), (−) Gallocatechin-3-gallate], the IC50 on Bcl-xL (setting [6]) worked out at 0.63 µM.

With `O=c1c(O)cccc2c([C@H]3Oc4cc(O)cc(O)c4C[C@H]3O)cc(O)c(O)c12` [Theaflavanin], the half-inhibitory concentration (IC50) at Bcl-xL (setting [7]) was determined as 0.55 µM.

Turning to `O=C(O[C@@H]1Cc2c(O)cc(O)cc2O[C@@H]1c1ccc(O)c(O)c1)c1cc(O)c(O)c(O)c1` [(−) Epicatechin-3-gallate (ECG), (−) Epicatechin-3-gallate], the IC50 on Bcl-xL (setting [6]) was 0.24 µM.
